Patent US8614324B2, “Filamin A binding anti-inflammatory and analgesic” (priority 2008, dated 2013)

Tests used:
[1] = test system: IL-1β release from primary human astrocytes; assay: LPS-induced cytokine release from primary human astrocytes, IL-1β; type: cell-based
Description: (§1) The following study was undertaken to investigate whether contemplated compounds and (+)NLX affect LPS-induced release of the pro-inflammatory cytokine (IL-1β, IL-6 and TNF-α) release from primary human astrocytes. […]
(§2) Primary astrocytes culture was prepared according to the provider's instructions (Lonza). The adherent astrocytes were trypsinized by 0.25% trypsin-EDTA, then collected and sub-cultured in 12-well plate (1.2 ml/well). […] Vehicle groups were pretreated with 0.1% DMSO only. Following addition of LPS, incubation continued for 24 hours. Culture medium was used as the blank and the levels of cytokines, TNF-α, IL-6 and IL-1β in 200 μl of culture medium were determined. Each well was sampled twice.
(§3) Plates were washed 3 times with ice-cold 50 mM Tris HCl (pH 7.4) and incubated at 30° C. with 200 μl medium derived from the above mentioned conditions. Plates were washed 3 times with ice-cold 50 mM Tris HCl (pH 7.4) and incubated at 30° C. with 0.5 μg/well un-conjugated rabbit anti-anti-INF-α, -IL-6 and -IL-1β for 1 hour. After two 1 minute washes with 50 mM Tris HCl (pH 7.4), each well was incubated in 0.5 μg/well FITC-conjugated anti-rabbit IgG (human and mouse absorbed) for 1 hour at 30° C. Plates were washed twice with 200 μl ice-cold Tris HCl, pH 7.4 and the residual […] signals were determined by multimode plate reader, DTX880 (Beckman).

[2] = test system: TNF-α release from primary human astrocytes; assay: LPS-induced cytokine release from primary human astrocytes, TNF-α; type: cell-based
Description: as §1, §2, §3

[3] = test system: IL-6 release from primary human astrocytes; assay: LPS-induced cytokine release from primary human astrocytes, IL-6; type: cell-based
Description: as §1, §2, §3

[4] = target: Bn-VAKGL pentapeptide of filamin A (FLNA) (Homo sapiens, UniProt P21333); assay: FITC-NLX-based FLNA screening assay (FLNA peptide binding assay); conditions: 10 nM FITC-NLX
Description: The final assay volume is 100 μl.
Compounds are tested in triplicate or quadruplicate.

mu opiate receptor (MOR) = target: T1, mu opiate receptor (MOR) (Rattus norvegicus, UniProt P33535); assay: MOR agonist activity, [35S]GTPγS binding assay using striatal membranes; type: biochemical; parameters: MOR agonist activity, [35S]GTPγS binding to Gαo: reference not given here; conditions: for % DAMGO (0.1 μM): 0.1 μM compound relative to DAMGO; for % DAMGO + BFNA: 1 μM compound + BFNA relative to DAMGO + BFNA; for % DAMGO (1 μM): 1 μM compound relative to DAMGO
T1 construct: from tissue; host or cells: striatal membrane preparation (rat striatum)
T1 sequence (P33535 whole entry): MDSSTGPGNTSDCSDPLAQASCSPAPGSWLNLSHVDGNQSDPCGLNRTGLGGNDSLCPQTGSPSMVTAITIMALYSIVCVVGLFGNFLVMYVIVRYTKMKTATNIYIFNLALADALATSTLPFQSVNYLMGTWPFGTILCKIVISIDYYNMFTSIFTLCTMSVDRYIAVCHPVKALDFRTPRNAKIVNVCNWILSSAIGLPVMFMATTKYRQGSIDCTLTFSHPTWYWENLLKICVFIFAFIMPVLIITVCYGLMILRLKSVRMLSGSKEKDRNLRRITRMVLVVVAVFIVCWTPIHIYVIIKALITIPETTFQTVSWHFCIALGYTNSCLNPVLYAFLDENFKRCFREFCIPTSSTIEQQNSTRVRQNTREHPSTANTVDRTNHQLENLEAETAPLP
Description: To assess the mu opiate receptor (MOR) agonist activity of positive compounds from the FLNA screening, compounds were tested in a [^35S]GTPγS binding assay using striatal membranes.
Striatal tissue was homogenized in 10 volumes of ice cold 25 mM HEPES buffer, pH 7.4, which contained 1 mM EGTA, 100 mM sucrose, 50 μg/ml leupeptin, 0.04 mM PMSF, 2 μg/ml soybean trypsin inhibitor and 0.2% 2-mercaptoethanol. The homogenates were centrifuged at 800×g for 5 minutes and the supernatants were centrifuged at 49,000×g for 20 minutes. The resulting pellets were suspended in 10 volume of reaction buffer, which contained 25 mM HEPES, pH 7.5, 100 mM NaCl, 50 μg/ml leupeptin, 2 μg/ml soybean trypsin inhibitor, 0.04 mM PMSF and 0.02% […].
The resultant striatal membrane preparation (200 μg) was admixed and maintained (incubated) at 30° C. for 5 minutes in reaction buffer as above that additionally contained 1 mM MgCl2 and 0.5 nM [^35S]GTPγS (0.1 μCi/assay, PerkinElmer Life and Analytical Sciences) in a total volume of 250 μl and continued for 5 minutes in the absence or presence of 0.1-10 μM of an assayed compound of interest. The reaction was terminated by dilution with 750 μl of ice-cold reaction buffer that contained 20 mM MgCl2 and 1 mM EGTA and immediate centrifugation at 16,000×g for 5 minutes.
The resulting pellet was solubilized by sonicating for 10 seconds in 0.5 ml of immunoprecipitation buffer containing 0.5% digitonin, 0.2% sodium cholate and 0.5% NP-40. Normal rabbit serum (1 μl) was added to 1 ml of lysate and incubated at 25° C. for 30 minutes. Nonspecific immune complexes were removed by incubation with 25 μl of protein A/G-conjugated agarose beads at 25° C. for 30 minutes followed by centrifugation at 5,000×g at 4° C. for 5 minutes. The supernatant was divided and separately incubated at 25° C. for 30 minutes with antibodies raised against Gαo proteins (1:1,000 dilutions).
The immunocomplexes so formed were collected by incubation at 25° C. for 30 minutes with 40 μl of agarose-conjugated protein A/G beads and centrifugation at 5,000×g at 4° C. for 5 minutes. The pellet was washed and suspended in buffer containing 50 mM Tris-HCl, pH 8.0, and 1% NP-40. The radioactivity in the suspension was determined by liquid scintillation spectrometry. […] DAMGO (H-Tyr-D-Ala-Gly-N-MePhe-Gly-OH; 1 or 10 μM) was used as a positive control.

[5] = Mouse hot-water tail-flick test; type: in vivo; conditions: orally administered, 56 mg/kg
Description: The mouse “tail flick” test was used to assay the relative antinociceptive activity of compositions containing a compound to be assayed. This assay was substantially that disclosed by Xie et al., 2005 J. Neurosci 25:409-416.
The mouse hot-water tail-flick test was performed by placing the distal third of the tail in a water bath maintained at 52° C. The latency until tail withdrawal from the bath was determined and compared among the treatments. A 10 second cutoff was used to avoid tissue damage. Data are converted to percentage of antinociception by the following formula: (response latency−baseline latency)/(cutoff−baseline latency)×100 to generate dose-response curves. […] Relative potency was determined as a ratio of the A50 values.
To assess tolerance to the antinociceptive effect, the compound was administered twice daily for 7 days at an A90 dose (dose that results in a 90% antinociceptive effect in the 52° C. warm-water tail-flick test), and the tail-flick test was performed daily after the a.m. dose. […] Assays were typically carried out separately using at least 32 and 56 mg/kg dosages, with some assays also separately carried out at 18 and 100 mg/kg.

[6] = 10 pM compound 2 hours prior to LPS (1 μg/ml) and continued 24 hours
[7] = 1 nM compound 2 hours prior to LPS (1 μg/ml) and continued 24 hours
[8] = 0.1 μM compound, striatal membranes
[9] = 1 μM compound + BFNA (1 μM β-funaltrexamine)
[10] = 1 μM compound, striatal membranes

C=CCN1CC[C@]23c4c5ccc(O)c4O[C@H]2C(=O)CC[C@]3(O)[C@H]1C5 [(+)Naloxone, (+)naloxone, reference compound]
IL-1β Average % (±SEM) [1, 6]: 75.9 (4.5) % | IL-1β Average % (±SEM) [1, 7]: 10.5 (4.8) % | TNF-α Average % (±SEM) [2, 6]: 58.6 (2.0) % | TNF-α Average % (±SEM) [2, 7]: 9.2 (6.0) % | IL-6 Average % (±SEM) [3, 6]: 56.9 (4.4) % | IL-6 Average % (±SEM) [3, 7]: 6.8 (4.3) %

COc1ccc(S(=O)(=O)N2CCOC23CCN(C(=O)OC(C)(C)C)CC3)cc1 [Compound C0043]
Percent inhibition of FITC-NLX binding ([4]; 0.01 μM compound): 43.9% | Percent inhibition of FITC-NLX binding ([4]; 0.1 μM compound): 51.3% | Percent inhibition of FITC-NLX binding ([4]; 1 μM compound): 58.0% | % DAMGO (0.1 μM) (mu opiate receptor (MOR)): 103.8% | MOR agonist activity, [35S]GTPγS binding to Gαo (mu opiate receptor (MOR); [8]): 175.4% | MOR agonist activity, [35S]GTPγS binding to Gαo (mu opiate receptor (MOR); [9]): 83.3% | % DAMGO + BFNA (mu opiate receptor (MOR)): 501.8% | % DAMGO (1 μM) (mu opiate receptor (MOR)): 110.9% | MOR agonist activity, [35S]GTPγS binding to Gαo (mu opiate receptor (MOR); [10]): 242.6%

O=[N+]([O-])c1ccc(S(=O)(=O)N2CCC3(CC2)NCCCO3)cc1 [Compound C0045]
Percent inhibition of FITC-NLX binding ([4]; 0.01 μM compound): 39.1% | Percent inhibition of FITC-NLX binding ([4]; 0.1 μM compound): 48.9% | Percent inhibition of FITC-NLX binding ([4]; 1 μM compound): 53.7% | % DAMGO (0.1 μM) (mu opiate receptor (MOR)): 88.3% | MOR agonist activity, [35S]GTPγS binding to Gαo (mu opiate receptor (MOR); [8]): 149.2% | MOR agonist activity, [35S]GTPγS binding to Gαo (mu opiate receptor (MOR); [9]): 105.3% | % DAMGO + BFNA (mu opiate receptor (MOR)): 634.3% | % DAMGO (1 μM) (mu opiate receptor (MOR)): 109.1% | MOR agonist activity, [35S]GTPγS binding to Gαo (mu opiate receptor (MOR); [10]): 238.8%

CS(=O)(=O)c1ccc(S(=O)(=O)N2CCOC23CCNCC3)cc1 [Compound C0116M]
MOR agonist activity, [35S]GTPγS binding to Gαo (mu opiate receptor (MOR); [8]): 258.4% | MOR agonist activity, [35S]GTPγS binding to Gαo (mu opiate receptor (MOR); [9]): 152.0% | MOR agonist activity, [35S]GTPγS binding to Gαo (mu opiate receptor (MOR); [10]): 302.8%

CC(=O)c1ccc(S(=O)(=O)N2CC(CN(C)C)OC23CCNCC3)cc1 (centres unmarked) [Compound C0118M]
MOR agonist activity, [35S]GTPγS binding to Gαo (mu opiate receptor (MOR); [8]): 166.2% | MOR agonist activity, [35S]GTPγS binding to Gαo (mu opiate receptor (MOR); [9]): 79.2% | MOR agonist activity, [35S]GTPγS binding to Gαo (mu opiate receptor (MOR); [10]): 261.5%

CC(=O)c1ccc(S(=O)(=O)N2C(Cc3c[nH]cn3)C(=O)NC23CCNCC3)cc1 (centres unmarked) [Compound C0119M]
MOR agonist activity, [35S]GTPγS binding to Gαo (mu opiate receptor (MOR); [8]): 105.7% | MOR agonist activity, [35S]GTPγS binding to Gαo (mu opiate receptor (MOR); [9]): 35.1% | MOR agonist activity, [35S]GTPγS binding to Gαo (mu opiate receptor (MOR); [10]): 167.8%

O=C1CN(Cc2ccccc2)C2(CCN(CC3CC3)CC2)N1 [Compound C0125M]
MOR agonist activity, [35S]GTPγS binding to Gαo (mu opiate receptor (MOR); [8]): 168.6% | MOR agonist activity, [35S]GTPγS binding to Gαo (mu opiate receptor (MOR); [9]): 159.7% | MOR agonist activity, [35S]GTPγS binding to Gαo (mu opiate receptor (MOR); [10]): 195.2%

CS(=O)(=O)c1ccc(S(=O)(=O)N2CCOC23CCN(CC2CC2)CC3)cc1 [Compound C0126M]
MOR agonist activity, [35S]GTPγS binding to Gαo (mu opiate receptor (MOR); [8]): 181.8% | MOR agonist activity, [35S]GTPγS binding to Gαo (mu opiate receptor (MOR); [9]): 108.5% | MOR agonist activity, [35S]GTPγS binding to Gαo (mu opiate receptor (MOR); [10]): 265.3%

CC(=O)c1ccc(S(=O)(=O)N2CC(CN(C)C)OC23CCN(CC2CC2)CC3)cc1 (centres unmarked) [Compound C0128M]
MOR agonist activity, [35S]GTPγS binding to Gαo (mu opiate receptor (MOR); [8]): 197.8% | MOR agonist activity, [35S]GTPγS binding to Gαo (mu opiate receptor (MOR); [9]): 63.9% | MOR agonist activity, [35S]GTPγS binding to Gαo (mu opiate receptor (MOR); [10]): 286.0%

COc1ccc(S(=O)(=O)N2CCOC23CCN(C(C)C)CC3)cc1 [Compound C0133M]
MOR agonist activity, [35S]GTPγS binding to Gαo (mu opiate receptor (MOR); [8]): 139.4% | MOR agonist activity, [35S]GTPγS binding to Gαo (mu opiate receptor (MOR); [9]): 72.4% | MOR agonist activity, [35S]GTPγS binding to Gαo (mu opiate receptor (MOR); [10]): 214.8%

Cc1ccc(S(=O)(=O)N2CCOC23CCN(CC2CC2)CC3)cc1 [Compound C0134M]
MOR agonist activity, [35S]GTPγS binding to Gαo (mu opiate receptor (MOR); [8]): 158.5% | MOR agonist activity, [35S]GTPγS binding to Gαo (mu opiate receptor (MOR); [9]): 46.6% | MOR agonist activity, [35S]GTPγS binding to Gαo (mu opiate receptor (MOR); [10]): 207.3%

CCc1ccc(S(=O)(=O)N2CCOC23CCN(CC2CC2)CC3)cc1 [Compound C0135M]
MOR agonist activity, [35S]GTPγS binding to Gαo (mu opiate receptor (MOR); [8]): 161.3% | MOR agonist activity, [35S]GTPγS binding to Gαo (mu opiate receptor (MOR); [9]): 113.3% | MOR agonist activity, [35S]GTPγS binding to Gαo (mu opiate receptor (MOR); [10]): 310.1%

COc1ccc(S(=O)(=O)N2CCC3(CC2)NCCC(=O)N3)cc1 [Compound C0142M]
MOR agonist activity, [35S]GTPγS binding to Gαo (mu opiate receptor (MOR); [8]): 143.7% | MOR agonist activity, [35S]GTPγS binding to Gαo (mu opiate receptor (MOR); [9]): 98.7% | MOR agonist activity, [35S]GTPγS binding to Gαo (mu opiate receptor (MOR); [10]): 192.5%

C[C@@H](NC(=O)[C@@H](N)Cc1ccc(O)cc1)C(=O)NCC(=O)N(C)[C@@H](Cc1ccccc1)C(=O)NCCO [DAMGO, reference compound]
MOR agonist activity, [35S]GTPγS binding to Gαo (mu opiate receptor (MOR); [8]): 168.5% | MOR agonist activity, [35S]GTPγS binding to Gαo (mu opiate receptor (MOR); [9]): 53.2% | MOR agonist activity, [35S]GTPγS binding to Gαo (mu opiate receptor (MOR); [10]): 266.1%

CN1CC[C@]23c4c5ccc(O)c4O[C@H]2[C@@H](O)C=C[C@H]3[C@H]1C5 [morphine, reference compound]
Maximum Antinociception (%) [5]: 43% | Time to Max. [5]: 20 min
